From the supplement of paper PMC11616607 come the findings set out here.

The first assay relates to HOSE2C. Put plainly: drug sensitivity score (DSS) from 5-point dose-response viability curve (DSS (area-under-curve based score)); higher = more sensitive (stronger growth inhibition or killing); extreme values may be limits of the assay. The following applies: exposure time: 72 h; concentration range: 5 concentrations over 10,000-fold range. The method, boiled down:
(§1)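 For the drug sensitivity score, obtained per cell line and drug in Breeze software, larger values mean greater sensitivity. No response corresponds to a score of zero. Ovarian cancer and normal ovarian cells were seeded at 1,500 per well into 384-well plates already holding acoustically dispensed drugs (Echo 550, DMSO or water, five concentrations over a 10,000-fold range) and incubated 3 days at 37°C, 5% CO2. CellTiter-Glo luminescence on a PHERAstar FS gave the viability readout.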
For `O=C(c1ccc(C(=O)N2CCC(N3CCCC3)CC2)c(Nc2ccccc2)c1)N1CCC(N2CCCC2)CC1` [UNC1215], the drug sensitivity score is 0.

On to `CCCCNc1ncc(C(=O)NCc2ccc(-n3ccnc3)cc2)c(NC2CCC(O)CC2)n1` (configuration not stated) [UNC2881], for which the drug sensitivity score came to 0.5.

`NC(=O)c1cccc(-c2cccc(OC(=O)NC3CCCCC3)c2)c1` [URB597]: the drug sensitivity score amounted to 0. For `CC(C)Nc1cc(-c2c[nH]c(C(=O)N[C@H](CO)c3cccc(Cl)c3)c2)c(Cl)cn1` [Ulixertinib], the drug sensitivity score came out at 2.2. Regarding `CC[C@@H]1CN(C(=O)NCC(F)(F)F)C[C@@H]1c1cnc2cnc3[nH]ccc3n12` [Upadacitinib], the drug sensitivity score was found to be 0. Regarding `Cn1ncc(Cl)c1-c1cc(C(=O)N[C@H](CN)Cc2ccc(F)c(F)c2)oc1Cl` [Uprosertib], the drug sensitivity score was found to be 2.1.

Compound `CS(=O)(=O)c1ccc(-c2cnc(N)c(C(=O)Nc3ccccc3)n2)cc1` [VE-821] showed a drug sensitivity score of 1.7.

`O=C(O)CC1CC(c2ccccc2)=NO1` (configuration not stated) [VGX-1027] came in with a drug sensitivity score of 0. Regarding `C=CC(=O)N1CC/C(=C\c2ccc(F)c([N+](=O)[O-])c2)C(=O)/C(=C/c2ccc(F)c([N+](=O)[O-])c2)C1` [VLX1570], the drug sensitivity score amounted to 21.4.

As for `CNC(=O)c1ccccc1Nc1cc(Nc2ccc(N3CCOCC3)cc2OC)ncc1C(F)(F)F` [VS-4718], the drug sensitivity score stood at 6. The compound `CCCC(CCC)C(=O)O` [Valproic acid] yielded a drug sensitivity score of 0.

Compound `CCCCC(=O)OCC(=O)[C@]1(O)Cc2c(O)c3c(c(O)c2[C@@H](O[C@H]2C[C@H](NC(=O)C(F)(F)F)[C@H](O)[C@H](C)O2)C1)C(=O)c1c(OC)cccc1C3=O` [Valrubicin] had a drug sensitivity score of 8.3.

In the case of `COc1cc2/c(=N/c3ccc(Br)cc3F)nc[nH]c2cc1OCC1CCN(C)CC1` [Vandetanib], the drug sensitivity score was 0. On to `CCc1c(C(=O)C(N)=O)c2c(OCC(=O)O)cccc2n1Cc1ccccc1` [Varespladib], for which the drug sensitivity score turned out to be 0.

`C[C@@H]1COC(Nc2ccc3ncnc(Nc4ccc(OCc5nccs5)c(Cl)c4)c3c2)=N1` [Varlitinib] came in with a drug sensitivity score of 0.2. Compound `Clc1ccc(Nc2nnc(Cc3ccncc3)c3ccccc23)cc1` [Vatalanib] displayed a drug sensitivity score of 0.

In another assay the test system is JHOS2. The description is as above. The following applies: exposure time: 72 h; concentration range: 5 concentrations over 10,000-fold range. The gist of the method:
as §1
On to `CN(C)CCOc1ccc(/C(=C(/CCCl)c2ccccc2)c2ccccc2)cc1` [Toremifene], for which the drug sensitivity score was 2. In turn, `CC(C)C[C@@H](C(=O)N[C@H](C(=O)OC1CCCC1)c1ccccc1)[C@H](O)C(=O)NO` [Tosedostat] gave a drug sensitivity score of 15.7. Turning to `Cc1cc(Nc2cc(N3CCN(C)CC3)nc(Sc3ccc(NC(=O)C4CC4)cc3)n2)n[nH]1` [Tozasertib], the drug sensitivity score came out at 2.1.

Compound `CC(=O)Nc1cccc(-n2c(=O)n(C3CC3)c(=O)c3c(Nc4ccc(I)cc4F)n(C)c(=O)c(C)c32)c1` [Trametinib] displayed a drug sensitivity score of 6.7. The compound `CC1=C(/C=C/C(C)=C/C=C/C(C)=C/C(=O)O)C(C)(C)CCC1` [Tretinoin] had a drug sensitivity score of 0.5. The compound `NC(=S)N/N=C/c1ncccc1N` [Triapine] returned a drug sensitivity score of 3.1. For the compound `O=c1[nH]c(=O)n([C@H]2C[C@H](O)[C@@H](CO)O2)cc1C(F)(F)F` [Trifluridine], the drug sensitivity score worked out at 0.6. In turn, `O=C(CCCCCCC(=O)Nc1ccc([C@H]2O[C@@H](CSc3nc(-c4ccccc4)c(-c4ccccc4)o3)C[C@@H](c3ccc(CO)cc3)O2)cc1)NO` [Tubacin] gave a drug sensitivity score of 1.7.

Compound `CN1CCc2c(c3ccccc3n2Cc2ccc(C(=O)NO)cc2)C1` [Tubastatin A] had a drug sensitivity score of 1.8.

For the compound `Cc1cc(Nc2ncnc3ccc(NC4=NC(C)(C)CO4)cc23)ccc1Oc1ccn2ncnc2c1` [Tucatinib], the drug sensitivity score stood at 0. Consider `Nc1cc(F)ccc1NC(=O)c1ccc(CNC(=O)/C=C/c2cccnc2)cc1` [Tucidinostat], for which the drug sensitivity score came out at 3.5. `CN[C@@H]1C[C@H]2O[C@@](C)([C@@H]1OC)n1c3ccccc3c3c4c(c5c6ccccc6n2c5c31)C(=O)N[C@H]4O` [UCN-01] came in with a drug sensitivity score of 15.3. `COC(=O)c1ccc2c(c1)[nH]c1ncnc(NCCCN3CCCCC3)c12` [UM729]: the drug sensitivity score stood at 0. `COc1cc2c(NC3CCN(C(C)C)CC3)nc(C3CCCCC3)nc2cc1OCCCN1CCCC1` [UNC0638]: the drug sensitivity score amounted to 0. `COc1cc2c(NC3CCN(C(C)C)CC3)nc(N3CCC(F)(F)CC3)nc2cc1OCCCN1CCCC1` [UNC0642] came in with a drug sensitivity score of 0. On to `O=C(c1ccc(C(=O)N2CCC(N3CCCC3)CC2)c(Nc2ccccc2)c1)N1CCC(N2CCCC2)CC1` [UNC1215], for which the drug sensitivity score was 0.

Compound `CCCCNc1ncc(C(=O)NCc2ccc(-n3ccnc3)cc2)c(NC2CCC(O)CC2)n1` (configuration not stated) [UNC2881] returned a drug sensitivity score of 0. In the case of `NC(=O)c1cccc(-c2cccc(OC(=O)NC3CCCCC3)c2)c1` [URB597], the drug sensitivity score is 0. In turn, `CC(C)Nc1cc(-c2c[nH]c(C(=O)N[C@H](CO)c3cccc(Cl)c3)c2)c(Cl)cn1` [Ulixertinib] registered a drug sensitivity score of 3.8. In turn, `CC[C@@H]1CN(C(=O)NCC(F)(F)F)C[C@@H]1c1cnc2cnc3[nH]ccc3n12` [Upadacitinib] displayed a drug sensitivity score of 0. On to `Cn1ncc(Cl)c1-c1cc(C(=O)N[C@H](CN)Cc2ccc(F)c(F)c2)oc1Cl` [Uprosertib], for which the drug sensitivity score was 0. In turn, `CS(=O)(=O)c1ccc(-c2cnc(N)c(C(=O)Nc3ccccc3)n2)cc1` [VE-821] had a drug sensitivity score of 0. `O=C(O)CC1CC(c2ccccc2)=NO1` (configuration not stated) [VGX-1027]: the drug sensitivity score worked out at 0.

On to `C=CC(=O)N1CC/C(=C\c2ccc(F)c([N+](=O)[O-])c2)C(=O)/C(=C/c2ccc(F)c([N+](=O)[O-])c2)C1` [VLX1570], for which the drug sensitivity score was determined as 17.5. For `CNC(=O)c1ccccc1Nc1cc(Nc2ccc(N3CCOCC3)cc2OC)ncc1C(F)(F)F` [VS-4718], the drug sensitivity score amounted to 5.5. For `CCCC(CCC)C(=O)O` [Valproic acid], the drug sensitivity score turned out to be 0. As to `CCCCC(=O)OCC(=O)[C@]1(O)Cc2c(O)c3c(c(O)c2[C@@H](O[C@H]2C[C@H](NC(=O)C(F)(F)F)[C@H](O)[C@H](C)O2)C1)C(=O)c1c(OC)cccc1C3=O` [Valrubicin], the drug sensitivity score came out at 6.6. Take `COc1cc2/c(=N/c3ccc(Br)cc3F)nc[nH]c2cc1OCC1CCN(C)CC1` [Vandetanib]: the drug sensitivity score stood at 0.6. With `CCc1c(C(=O)C(N)=O)c2c(OCC(=O)O)cccc2n1Cc1ccccc1` [Varespladib], the drug sensitivity score came to 0.1.

In turn, `C[C@@H]1COC(Nc2ccc3ncnc(Nc4ccc(OCc5nccs5)c(Cl)c4)c3c2)=N1` [Varlitinib] yielded a drug sensitivity score of 0. `Clc1ccc(Nc2nnc(Cc3ccncc3)c3ccccc23)cc1` [Vatalanib] gave a drug sensitivity score of 0.
